Results reported in patent US20130172271A1, “Pharmaceutical Spray Drying” (priority 2012, published 2013).
Where a name gives a salt, the structure may show the parent alone.

Legend:
[1] = Stability testing of spray dried vancomycin batch stored at 25° C./60% RH, 30° C./60% RH and 40° C./75% RH; assay type: physicochemical; conditions: Initial
Experimental: (§1) Batches for stability testing were made using the spray dried formulation vancomycin HCl (15% by weight), PEG-400 (3% by weight), mannitol (3% by weight) in WFI, with the API sourced from Abbott Laboratories (North Chicago, Ill.). Spray dried batches were stored at 25° C./60% Relative Humidity (RH), 30° C./60% RH, and 40° C./75% RH for three months. The stability data on moisture by Karl Fischer, pH (of the reconstituted solution), reconstitution time and chromatographic purity are presented in Table 7. The chromatographic purity was examined using the analytical HPLC method described in the current USP (United States Pharmacopeia) monograph for vancomycin. The test results for the API lot used to make the spray dried product were also listed for comparison.
The chromatographic purity of vancomycin B for all samples tested in this study were within USP specifications. All samples were stored at the accelerated conditions of 40° C./75% RH for 3 months and met USP criterion for vancomycin B by chromatographic purity (NLT 80% vancomycin B).

[2] = Chromatographic purity / impurities of spray dried vancomycin powders (Vancomycin B); assay type: physicochemical
Experimental: as §1
Three vancomycin formulations were prepared in WFI or citrate buffer. The solutions were spray dried as described above. Resultant powders were tested along with the vancomycin HCl API for impurities, reconstitution time and moisture as shown in Table 8.

Structure (SMILES)	Vancomycin B [1] [%]	N-Demethylvancomycin ([2]; Table 8) [%]	Vancomycin B ([2]; Table 8) [%]	Other ([2]; Table 8, other impurities) [%]
CN[C@H](CC(C)C)C(=O)N[C@H]1C(=O)N[C@@H](CC(N)=O)C(=O)N[C@H]2C(=O)N[C@H]3C(=O)N[C@H](C(=O)N[C@H](C(=O)O)c4cc(O)cc(O)c4-c4cc3ccc4O)[C@H](O)c3ccc(c(Cl)c3)Oc3cc2cc(c3O[C@@H]2O[C@H](CO)[C@@H](O)[C@H](O)[C@H]2O[C@H]2C[C@](C)(N)[C@H](O)[C@H](C)O2)Oc2ccc(cc2Cl)[C@H]1O [API Lot 09097619, vancomycin HCl]	91.9	–	–	–
CN[C@H](CC(C)C)C(=O)N[C@H]1C(=O)N[C@@H](CC(N)=O)C(=O)N[C@H]2C(=O)N[C@H]3C(=O)N[C@H](C(=O)N[C@H](C(=O)O)c4cc(O)cc(O)c4-c4cc3ccc4O)[C@H](O)c3ccc(c(Cl)c3)Oc3cc2cc(c3O[C@@H]2O[C@H](CO)[C@@H](O)[C@H](O)[C@H]2O[C@H]2C[C@](C)(N)[C@H](O)[C@H](C)O2)Oc2ccc(cc2Cl)[C@H]1O [API, vancomycin HCl]	–	0.6	94.9	4.5
